One compound from patent publication US20250051762A1, “PLATFORM USING DNA-ENCODED SMALL MOLECULE LIBRARIES AND RNA SELECTION TO DESIGN SMALL MOLECULES THAT TARGET RNA” (University of Florida Research Foundation, Incorporated, priority 2021, published 2025) can be followed below.

As a reminder, the Kd is the free concentration of one partner at which half of the binding sites on the other are occupied at equilibrium, for simple one-to-one binding. A high value points to a looser complex.

Molecules are shown by their SMILES.

For assay [1], the system named is fully paired RNA (loop mutated to a base pair). The assay can be described thus: Binding affinity by MST, Cy5-labeled fully paired RNA. How it is done: (§1) Binding affinity measurements: Binding affinities were measured by microscale thermophoresis (MST), performed on a Monolith NT.115 system (NanoTemper Technologies) with Cy5-labeled RNAs. These RNAs include: the 5′GAG/3′CCC SEQ ID NO: 16 loop at pri-miR-27a's Drosha site (Sequence:/5′-Cy5/rCrUrGrArGrGrUrGrArArArCrArUrCrCrCrArG SEQ ID NO: 17; Dharmacon), a related internal loop not selected by 9. 5′CAG/3′GCC SEQ ID NO: 17 loop (Sequence:/5′-Cy5/rCrUrCrArGrGrUrGrArArArCrArUrCrCrGrArG SEQ ID NO: 16; Dharmacon), and an RNA in which the loop is mutated to a base pair (Sequence:/5-Cy5/rCrUrGrArGrGrUrGrArArArCrArUrCrUrCrArG SEQ ID NO: 16; Dharmacon).
(§2) Briefly, Cy5-labeled RNA (10 nM) was prepared in 1× Binding Buffer and folded by heating at 60° C. for 5 min and then slowly cooling to room temperature. After cooling, Tween-20 was added to a final concentration of 0.1% (v/v). Compound solutions were prepared separately in 20 μL of 1× Binding Buffer at a final concentration of 5 μM (1% (v/v) DMSO), followed by 1:1 serial dilutions in 1× Binding Buffer. RNA and compound solutions were then mixed 1:1 by volume to a total of 20 μL.
(§3) Samples were incubated for 20 min at room temperature and then loaded into premium capillaries (NanoTemper Tech, Cat #MO-K025). The following parameters were used for MST measurements: 5-20% LED power (adjusted to keep fluorescence intensity between 2000 and 8000), 80% MST power, Laser-On time=30 s, Laser-Off time=25 s. The resulting data were analyzed by calculating the change in thermophoresis as a function of compound concentration and fitted by Equation 1, a one site binding model, in NanoTemper Tech's MST analysis software to yield the dissociation constant (Kd):
(§4) Where F is the concentration of fluorescently labeled RNA; unbound and bound refer to the thermophoresis signal at completely unbound and bound state of RNA, respectively; c is the concentration of the compound; f (c) is the thermophoresis signal at compound concentration of c; and Kd is the dissociation constant.

A further assay concerns ZBTB10. Put plainly: Western blot of ZBTB10 in MDA-MB-231 cells. It is filed as cell-based, human. To be noted: relative to β-actin, 48 h.
The test system of a further assay is mutant pri-miR-27a. The assay can be described thus: Competitive MST binding assay with unlabeled mutated pri-miR-27a. On the set-up: species or system human. To be noted: two 5′GAG/3′CCC loops mutated to base pairs. As to the method: To measure the affinity of 9 for the 5′GAG/3′CCC loop in the context of pri-miR-27a, a competitive binding assay was used with a constant concentration of compound (100 nM) and the Cy5-labeled model of pri-miR-27a's Drosha site, and varying concentrations of unlabeled miR-27a precursor as reported by miRBase. (35) That is, the miR-27a precursor competes with the Cy5-labeled model of pri-miR-27a's Drosha site for binding 9. […] Thus, the compounds identified by using DEL-2DCS can bind avidly to biologically relevant RNA targets identified by Inforna.
For competitive binding assays, both WT and mutant pri-miR-27a RNAs were transcribed as previously described (see Table S6 for sequences). (11) The RNA was purified by gel electrophoresis and folded in 1× Binding Buffer at final concentration of 750 nM by heating at 60° C. for 5 min and then slowly cooling to room temperature. […] The resulting data were analyzed by SigmaPlot and fitted by Equation 2 to yield the competitive dissociation constant (Kd competitive).
where F is the concentration of fluorescence-labeled RNA; unbound and bound refers to the thermophoresis signal at completely unbound and bound state of RNA, respectively; c is the concentration of the compound; f (c) is the thermophoresis signal at compound concentration of c; Kd is the dissociation constant. […]

Assay [2] deals with MCF-10a cells that express WT pri-miR-27a. Put plainly: Migration of MCF-10a cells expressing WT pri-miR-27a. The class given is cell-based, human. As to the method: MCF-10a cells were transfected with plasmids to express pri-miR-27a and mutant pri-miR-27a in 12- or 24-well plates with Lipofectamine 2000 per the manufacturer's protocol. For treatment of compounds, stocks were diluted in growth medium and added to cells for 48 h. The miRCURY miR-27a LNA inhibitor (QIAGEN, Cat #339121) was used as a positive control by diluting in growth medium to a final concentration of 1 nM. The miRCURY LNA Negative Control (QIAGEN, Cat #YI00199007-DDA) was used as a negative control, which has also diluted in growth medium to a final concentration of 1 nM.
Migration assay: MDA-MB-231 cells were grown in 60 mm diameter dishes and treated as described in “Cell culture and compound treatment” for 12 h. The medium was then removed and replaced with growth medium lacking FBS but with the same concentration of compound. After 12 h of serum starvation, the cells were detached and seeded to ThinCert™ (GBO) 24-well hanging inserts with 8 μm pores (˜5×10^4 cells per insert). Fresh growth medium with FBS was dispended in a 24-well plate (600 μL each well), and the ThinCert™ hanging inserts containing cells were then placed into the wells. After incubating for 24 h, the growth medium in the inserts was removed, and the remaining cells were washed twice with 1×DPBS. […] The remaining cells were then imaged by microscopy and counted for quantification (3 fields of view per sample).

Assay [3] concerns the target 5′GAG/3′CCC loop at pri-miR-27a's Drosha site. The assay can be described thus: Binding affinity by microscale thermophoresis (MST), Cy5-labeled RNA. Further details: species or system human. How it is done:
as §1, §2, §3, §4

For `C#CCN(CC(N)=O)C(=O)C[C@H](Cc1c[nH]c2ccccc12)NC(=O)[C@@H]1C[C@H](NC(=O)Cn2c(=O)[nH]c3ccccc3c2=O)CN1` [Compound 9], in assay [1], the saturable binding result is “Saturable binding was not observed”. In the assay on ZBTB10, the ZBTB10 expression result was “upregulation”. For the same compound, in the assay on mutant pri-miR-27a, the “binding (competitive)” value is reported as “binding was abolished”. Moreover, in assay [2], the migration result is “reduced migration”. In assay [3], this compound returned a dissociation constant (Kd) of 90 ± 20 nM.
